Measured values from patent US9562031B1, “Phenethyldihydrobenzodioxolones and methods of use” (Sequoia Sciences, Inc., priority 2015, dated 2017).
Where two headings read alike, the source gives them in different places.

Assays:
[1] = test system: NCI-H460 (large cell lung carcinoma) cells; assay: antiproliferation assay (72 h, CELLTITER 96), NCI-H460; format: cell-based, human; settings: Homo sapiens
In short: (§1)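 Human M14 melanoma and NCI-H460 lung carcinoma cells in RPMI-1640/10% FBS, seeded at 5×10^2–5×10^4 cells/well and adhered overnight, then exposed to seven compound concentrations for 72 h at 37 °C. Viable cells read by CellTiter 96 AQueous (MTS); IC50 = concentration giving 50% of maximal growth inhibition.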

[2] = test system: M14 (amelanotic melanoma) cells; assay: antiproliferation assay (72 h, CELLTITER 96), M14; format: cell-based, human; settings: Homo sapiens
In short: as §1

[3] = test system: TK-10 cells; assay: antiproliferation assay, paclitaxel-resistant TK-10; format: cell-based; settings: Homo sapiens
Description: (§2) For the antiproliferation assay, NCI-H460 (large cell lung carcinoma) or M14 (amelanotic melanoma) cells were grown in RPMI-1640 with 10% FBS supplemented with L-glutamine and HEPES. Cells were seeded into 96-well plates at 5×10^2 to 5×10^4 cells/well and allowed to adhere overnight; the medium was then removed. A stock solution of test compound in DMSO was diluted in medium to generate a series of working solutions. Aliquots (100 μl) of the working solutions were then added to the appropriate test wells to expose cells to the final concentrations of compound in a total volume of 100 μl. Seven different concentrations were tested, with 2-5 wells per concentration. Camptothecin was used as a positive control; wells containing vehicle without compound were used as negative controls. Plates were kept for 72 h in a 37° C., 5% CO2 incubator. After incubation, viable cells were detected with the CELLTITER 96 AQueous Non-Radioactive Cell Proliferation Assay (Promega), and IC50 values were determined using GraphPad Prism 5 software.
Compound 4 was tested for antiproliferation activity against several paclitaxel-resistant human cancer cell lines.

[4] = test system: MOLT-4 cells; assay: antiproliferation assay, MOLT-4; format: cell-based; settings: Homo sapiens
Description: as §2
(§3) Antiproliferation of several of the active compounds was tested against additional cell lines.

[5] = compound concentrations in mouse plasma after IP injection (LC/MS); format: in vivo; settings: mice, IP 40 mg/kg, 3-5 h after injection; vehicle 42.97% propylene glycol, 0.23% TWEEN-20, 31.5% PEG400, 15.3% ethanol, 10% water
Description: The bioavailabilities of certain compounds were examined in mice. Administration of the compounds was performed by intraperitoneal (IP) injection using a vehicle as known to those skilled in the art. To measure compound concentrations in plasma, blood is collected by cardiac puncture at a specified time after […]. It is then centrifuged in a plasma separator tube with NaEDTA/NaF as the anticoagulant, and the resulting plasma is stored at −80° C. For analysis, an internal standard is added to a 200 μL aliquot of plasma, and the aliquot is extracted with ethyl acetate. The ethyl acetate extract is analyzed by LC/MS and quantitated using a standard curve prepared by adding known amounts of test compound and internal standard to 200 μL aliquots of blank mouse plasma.
Many vehicles can be used to examine bioavailability. […]
Plasma concentrations were measured for several additional compounds. Table 12 lists plasma concentrations (as a multiple of the compound's IC50 against NCI-H460 cells) measured for these compounds at different time points after injection, along with the vehicle used.

[6] = test system: NCI-H187 cells; assay: antiproliferation assay, NCI-H187; format: cell-based; settings: Homo sapiens
Description: as §2, §3

[7] = test system: SK-MEL-28 cells; assay: NCI-60 panel antiproliferation, SK-MEL-28; format: cell-based, human; settings: Homo sapiens, NCI 60-cell panel
Description: (§4) Bifidenone and Compound 37 were tested for antiproliferation activity against the NCI-60 panel of cancer cell lines. COMPARE analysis was then conducted to compare the activity “fingerprint” of bifidenone to those of known classes of compounds (Zhou, B.-N., Hoch, J. M., Johnson, R. K., Mattern, M. R., Eng, W.-K., Ma, J., Hecht, S. M., Newman, D. J., Kingston, D. G. I., 2000. Use of COMPARE Analysis to Discover New Natural Product Drugs: Isolation of Camptothecin and 9-Methoxycamptothecin from a New Source. Journal of Natural Products 63, 1273-1276.).

[8] = test system: T-47D cells; assay: NCI-60 panel antiproliferation, T-47D; format: cell-based, human; settings: Homo sapiens, T47D, NCI 60-cell panel
Description: as §4

[9] = test system: OVCAR-3 cells; assay: NCI-60 panel antiproliferation, OVCAR-3; format: cell-based, human; settings: Homo sapiens, NCI 60-cell panel
Description: as §4

[10] = test system: U251 cells; assay: NCI-60 panel antiproliferation, U251; format: cell-based, human; settings: Homo sapiens, U-251, NCI 60-cell panel
Description: as §4

[11] = test system: SK-OV-3 cells; assay: NCI-60 panel antiproliferation, SK-OV-3; format: cell-based, human; settings: Homo sapiens, NCI 60-cell panel
Description: as §4

[12] = test system: HT29 cells; assay: NCI-60 panel antiproliferation, HT29; format: cell-based, human; settings: Homo sapiens, HT-29, NCI 60-cell panel
Description: as §4

[13] = test system: OVCAR-5 cells; assay: NCI-60 panel antiproliferation, OVCAR-5; format: cell-based, human; settings: Homo sapiens, NCI 60-cell panel
Description: as §4

[14] = test system: PC-3 cells; assay: NCI-60 panel antiproliferation, PC-3; format: cell-based, human; settings: Homo sapiens, NCI 60-cell panel
Description: as §4

[15] = test system: MDA-MB-468 cells; assay: NCI-60 panel antiproliferation, MDA-MB-468; format: cell-based, human; settings: Homo sapiens, NCI 60-cell panel
Description: as §4

[16] = test system: KM12 cells; assay: NCI-60 panel antiproliferation, KM12; format: cell-based, human; settings: Homo sapiens, NCI 60-cell panel
Description: as §4

[17] = test system: RXF-393 cells; assay: NCI-60 panel antiproliferation, RXF-393; format: cell-based, human; settings: Homo sapiens, NCI 60-cell panel
Description: as §4

IC50 ([1]; NCI-H460, Table 3, read-out: NCI-H460 IC50) [nM]	IC50 ([1]; NCI-H460, as quoted in the pharmacokinetics text, read-out: IC50 against NCI-H460 human lung cancer cells) [nM]	IC50 ([2]; Table 3) [nM]	IC50 [4] [nM]	plasma concentration relative to IC50 against NCI-H460 [5]	IC50 [6] [nM]	IC50 ([1]; NCI-H460, Table 4, read-out: NCI-H460 IC50) [nM]	IC50 ([2]; Table 4) [nM]	SMILES	IC50 [3] [nM]	IC50 [7] [nM]	IC50 [8] [nM]	IC50 [9] [nM]	IC50 [10] [nM]	IC50 [11] [nM]	IC50 [12] [nM]	IC50 [13] [nM]	IC50 [14] [nM]	IC50 [15] [nM]	IC50 [16] [nM]	IC50 [17] [nM]
15	15	11	28	below its IC50	21	–	–	C=CC[C@H]1C[C@]2([C@H](C)Cc3cc(O)c(OC)cc3F)OCOC2=CC1=O (relative stereo) [Compound 4, 6-allyl-7a-(1-(2-fluoro-5-hydroxy-4-methoxyphenyl)propan-2-yl)-7,7a-dihydrobenzo[d][1,3]dioxol-5(6H)-one]	7	–	–	–	–	–	–	–	–	–	–	–
–	–	–	–	–	–	85	8	C=CC[C@H]1C[C@]2([C@@H](C)Cc3ccc(OC)c(F)c3)OCOC2=CC1=O [Compound 37, (6S,7aR)-6-allyl-7a-((S)-1-(3-fluoro-4-methoxyphenyl)propan-2-yl)-7,7a-dihydrobenzo[d][1,3]dioxol-5(6H)-one]	–	37	> 10000	40	123	39	88	119	70	59	55	95
